Substitutions are numbered along the chain they refer to. Residues, ends and D or L forms follow the SMILES beside them.
Columns and labels:
NPSR1-Asn(107) = target: T1, NPSR1-Asn(107) (Homo sapiens, UniProt Q6W5P4); test: CRE-dependent luciferase activity, NPSR1-Asn(107); assay type: cell-based; conditions: HEK293 transiently transfected with NPSR1-Asn(107); NPS 10 pM-100 μM, 3 h; three experiments in triplicates; mean ± SE; Val(6) vs Leu(6) p = 0.03; read-out: pEC50 for CRE-dependent luciferase activity (converted)
T1 construct: expressed in transfected cells; host or cells: HEK293
T1 sequence (Q6W5P4 1-371): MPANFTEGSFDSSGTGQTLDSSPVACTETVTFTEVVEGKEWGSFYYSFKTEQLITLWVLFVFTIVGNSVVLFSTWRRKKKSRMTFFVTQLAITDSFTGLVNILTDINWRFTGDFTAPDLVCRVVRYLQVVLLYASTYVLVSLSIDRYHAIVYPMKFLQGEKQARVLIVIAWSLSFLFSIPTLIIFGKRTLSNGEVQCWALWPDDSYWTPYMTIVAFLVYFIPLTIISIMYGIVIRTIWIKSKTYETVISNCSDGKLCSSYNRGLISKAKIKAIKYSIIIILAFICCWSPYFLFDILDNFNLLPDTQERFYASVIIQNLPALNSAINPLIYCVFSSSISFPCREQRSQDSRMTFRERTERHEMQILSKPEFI
From the text: (§1) To compare the bioactivities of the two NPS variants, we measured the dose-responses of NPSR1-Ile(107) and NPSR1-Asn(107) coding variants to either wildtype NPS-Val(6) or alternative NPS-Leu(6) in a luciferase assay dependent on the activation of a cAMP-response element (CRE). This assay was used since elevation of the intracellular cAMP levels activates cAMP response element binding protein (CREB) via […]. Activated CREB binds to CRE and induces the expression of downstream target genes of the cAMP/PKA signaling pathway. Because of the low endogenous expression levels of NPSR1 in majority of the available cell lines, we first used HEK293 cells with forced NPSR1 expression as a model for ligand-receptor interactions. […] Firefly and Renilla luciferase activity was measured 3 h after stimulation with serial dilutions of NPS (10 pM-100 μM). […]
(§2) Human embryonic kidney cells (HEK293) were cultured in MEM+GlutaMAX-1 medium (Gibco/Invitrogen) supplemented with 10% fetal calf serum (FCS) (Biosera), 1% sodium pyruvate, 1% non-essential amino acids and 1% penicillin/streptomycin (Gibco/Invitrogen). […] The HEK293 cell line was chosen for ligand-receptor studies because it is a well-established model for addressing numerous questions in basic biology and is easy to transfect and amenable of stringent quantitative assessment. […]

NPSR1-Ile(107) = target: T2, NPSR1-Ile(107) (Homo sapiens, UniProt Q6W5P4, N107I); test: CRE-dependent luciferase activity, NPSR1-Ile(107); assay type: cell-based; design: expressed in transfected cells; host or cells: HEK293; conditions: HEK293 transiently transfected with NPSR1-Ile(107); NPS 10 pM-100 μM, 3 h; three experiments in triplicates; mean ± SE; Val(6) vs Leu(6) p = 0.004; read-out: pEC50 for CRE-dependent luciferase activity (converted)
T2 sequence (Q6W5P4 1-371 N107I): T1 sequence (Q6W5P4 1-371) with N107I
From the text: as §1, §2

| Structure (SMILES) | EC50 (NPSR1-Asn(107)) [nM] | EC50 (NPSR1-Ile(107)) [nM] |
| --- | --- | --- |
| CSCC[C@H](NC(=O)CNC(=O)[C@@H](NC(=O)CNC(=O)[C@@H](NC(=O)CNC(=O)[C@H](CC(N)=O)NC(=O)[C@H](CCCNC(=N)N)NC(=O)[C@H](Cc1ccccc1)NC(=O)[C@@H](N)CO)C(C)C)[C@@H](C)O)C(=O)N[C@@H](CCCCN)C(=O)N[C@@H](CCCCN)C(=O)N[C@H](C(=O)N[C@@H](CO)C(=O)N[C@@H](Cc1ccccc1)C(=O)N[C@@H](CCC(N)=O)C(=O)N[C@@H](CCCNC(=N)N)C(=O)N[C@@H](C)C(=O)N[C@@H](CCCCN)C(=O)N[C@@H](CO)C(=O)O)[C@@H](C)O [NPS-Val(6)] (H-SFRNGVGTGMKKTSFQRAKS-OH) | 794 | 3.98 |
| CSCC[C@H](NC(=O)CNC(=O)[C@@H](NC(=O)CNC(=O)[C@H](CC(C)C)NC(=O)CNC(=O)[C@H](CC(N)=O)NC(=O)[C@H](CCCNC(=N)N)NC(=O)[C@H](Cc1ccccc1)NC(=O)[C@@H](N)CO)[C@@H](C)O)C(=O)N[C@@H](CCCCN)C(=O)N[C@@H](CCCCN)C(=O)N[C@H](C(=O)N[C@@H](CO)C(=O)N[C@@H](Cc1ccccc1)C(=O)N[C@@H](CCC(N)=O)C(=O)N[C@@H](CCCNC(=N)N)C(=O)N[C@@H](C)C(=O)N[C@@H](CCCCN)C(=O)N[C@@H](CO)C(=O)O)[C@@H](C)O [NPS-Leu(6)] (H-SFRNGLGTGMKKTSFQRAKS-OH) | 12600 | 200 |

Source: paper PMC5413018, “Neuropeptide S (NPS) variants modify the signaling and risk effects of NPS Receptor 1 (NPSR1) variants in asthma” (PLoS ONE, 2017)
